Values quoted from earlier work, collected in paper PMC7029871, “Development and validation of a sensitive LC-MS/MS method for the quantitation of IMB-YH-4py5-2H, an antituberculosis candidate, and its application to the pharmacokinetic study” (PLoS ONE, 2020).
Read-outs that look alike come from different tables or passages of the source.

Tested on: Mycobacterium tuberculosis strains
Settings: cited from earlier work

## CN(C)C(=O)/C=C/C(=O)c1ccc(-c2ccncc2)cc1.Cl [IMB-YH-4py5-2H, (E)-N,N-dimethyl-4-oxo-4-(4-(pyridin-4-yl)phenyl)but-2-enamide hydrochloride]
Sensitive and resistant M. tuberculosis strains, method and reference not given
  MICs: 0.25 to 0.5 µg/mL

## COC(=O)/C=C/C(=O)c1ccc(OC)cc1 [YH-8, (E)-Methyl-4-aryl-4-oxabut-2-enoate, reference compound]
drug-sensitive and drug-resistant M. tuberculosis strains
  MICs: 0.25 to 1 µg/mL
